For series [1], the system named is ASICs. Conditions: cited from earlier work.
The nature of series [2]: Weight change in LepR^PB obese mice. The series is classed as in vivo, LepR^PB female mice. Conditions: oral gavage 6 times a week for 5 weeks, 4.1 mg/kg/day Day 1-14, 12.3 mg/kg/day Day 15-35; by day 35. How it is done: 8 weeks old LepR^PB female mice were used in the experiment. LepR^PB mouse is a model of obesity, which carries a mutation in the gene for the leptin receptor. 20 mice were randomly divided into two groups. […] Amiloride was dissolved in DMSO and diluted in sterile water. […] The injection volume was 10 ml/kg. The mice in control group received 82 μl DMSO/kg/day in sterile water. Body weight was measured. The weight changes compared to the body weight on Day 14 were analyzed.

Series [3] is described as follows: Body composition by NMR in LepR^PB obese mice. The series is classed as in vivo, LepR^PB female mice. Conditions: before and after 5-week administration.
Another series has as its system DEG/ENaC ion channels. Nature of the series: Short-term food intake in normal mice. It is filed as in vivo, C57BL6 mice. Conditions: 15 minutes before feeding. How it is done: 13 weeks old C57BL6 Female and male mice were singly housed for 2 weeks before the experiment. Mice were starved Sam-6 μm. […] The administrated volume was 10 ml/kg body weight. 15 minutes later, normal chow solid food was provided to the mice and the food consumption at designated time points were measured. P-values were calculated using t-test (unpaired, 2 tails) for data points. *=p<0.05, **=p<0.01, ***=p<0.001
15 weeks old C57BL6 female mice were singly housed for 2 weeks before the experiment. Mice were starved Sam-6 μm. Then Benzamil (Benzamil hydrochloride hydrate) was administrated by intraperitoneal injection, 0.01-10 μmole/kg body weight (3.5621 μg 3.5621 mg/kg b.w.), or saline. The administrated volume was 10 ml/kg body weight. 15 minutes later, normal chow solid food was provided to the mice and the food consumption at designated time points were measured.

Series [4] relates to ASICs. Conditions: in vitro; cited from earlier work.
A further series has as its system ASIC. Conditions: cited from earlier work.
A further series addresses T1, ENaC (Homo sapiens, UniProt P37088+P51168+P51170).
T1 sequence (P37088 1-669): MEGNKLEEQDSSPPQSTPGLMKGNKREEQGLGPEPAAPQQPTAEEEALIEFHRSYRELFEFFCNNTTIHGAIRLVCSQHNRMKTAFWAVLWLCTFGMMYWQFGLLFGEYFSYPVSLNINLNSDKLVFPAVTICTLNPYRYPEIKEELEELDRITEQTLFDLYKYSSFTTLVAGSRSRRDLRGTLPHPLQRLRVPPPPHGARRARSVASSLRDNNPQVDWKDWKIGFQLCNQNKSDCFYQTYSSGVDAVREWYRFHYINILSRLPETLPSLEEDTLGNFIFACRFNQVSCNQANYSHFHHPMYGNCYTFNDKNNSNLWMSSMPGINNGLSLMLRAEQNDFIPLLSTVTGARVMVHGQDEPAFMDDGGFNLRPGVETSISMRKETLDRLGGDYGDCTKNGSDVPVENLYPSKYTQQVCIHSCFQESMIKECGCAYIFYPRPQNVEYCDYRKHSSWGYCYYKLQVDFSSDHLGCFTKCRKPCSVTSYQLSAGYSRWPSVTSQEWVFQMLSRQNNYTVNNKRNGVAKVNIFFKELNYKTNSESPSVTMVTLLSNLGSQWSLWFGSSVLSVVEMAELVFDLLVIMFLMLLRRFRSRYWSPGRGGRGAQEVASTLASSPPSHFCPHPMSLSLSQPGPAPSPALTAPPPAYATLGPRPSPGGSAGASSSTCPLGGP
T1 sequence (P51168 1-640): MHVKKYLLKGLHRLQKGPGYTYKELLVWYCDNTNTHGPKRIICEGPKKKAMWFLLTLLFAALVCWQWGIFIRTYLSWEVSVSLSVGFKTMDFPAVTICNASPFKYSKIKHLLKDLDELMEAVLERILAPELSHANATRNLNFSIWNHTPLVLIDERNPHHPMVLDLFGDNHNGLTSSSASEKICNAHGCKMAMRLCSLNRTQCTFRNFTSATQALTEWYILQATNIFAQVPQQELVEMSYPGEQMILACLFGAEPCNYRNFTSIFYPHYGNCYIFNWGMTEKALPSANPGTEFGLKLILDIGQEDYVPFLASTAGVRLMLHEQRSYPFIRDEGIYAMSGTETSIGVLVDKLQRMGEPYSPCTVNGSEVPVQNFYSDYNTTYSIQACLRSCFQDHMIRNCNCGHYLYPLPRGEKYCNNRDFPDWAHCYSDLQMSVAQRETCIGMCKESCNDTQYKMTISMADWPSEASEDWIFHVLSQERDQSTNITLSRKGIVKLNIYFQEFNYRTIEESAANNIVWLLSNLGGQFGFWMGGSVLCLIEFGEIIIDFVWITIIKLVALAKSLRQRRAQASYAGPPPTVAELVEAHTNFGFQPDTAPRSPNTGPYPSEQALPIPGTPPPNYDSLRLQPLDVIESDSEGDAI
T1 sequence (P51170 1-649): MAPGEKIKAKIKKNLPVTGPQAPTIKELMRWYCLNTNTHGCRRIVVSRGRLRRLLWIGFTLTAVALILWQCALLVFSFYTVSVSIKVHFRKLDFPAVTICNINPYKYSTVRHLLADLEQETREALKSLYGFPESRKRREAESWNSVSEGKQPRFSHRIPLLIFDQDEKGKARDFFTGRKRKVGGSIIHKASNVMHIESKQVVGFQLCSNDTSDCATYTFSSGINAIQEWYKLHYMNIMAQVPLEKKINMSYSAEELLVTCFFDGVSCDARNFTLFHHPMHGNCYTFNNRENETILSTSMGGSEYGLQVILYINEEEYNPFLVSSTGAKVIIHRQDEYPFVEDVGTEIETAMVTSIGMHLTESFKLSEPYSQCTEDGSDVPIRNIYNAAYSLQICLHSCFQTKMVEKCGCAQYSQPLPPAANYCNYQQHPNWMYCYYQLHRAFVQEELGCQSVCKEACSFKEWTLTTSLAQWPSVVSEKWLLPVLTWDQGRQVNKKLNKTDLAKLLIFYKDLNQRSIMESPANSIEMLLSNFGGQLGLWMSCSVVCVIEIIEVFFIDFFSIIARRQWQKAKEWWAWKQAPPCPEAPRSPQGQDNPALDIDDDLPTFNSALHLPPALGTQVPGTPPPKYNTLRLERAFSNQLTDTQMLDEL
Conditions: in vitro and in vivo; cited from earlier work.

For series [5] the following is noted: guinea pig TPD model; cited from earlier work.
For the next series, the target named is T2, heteromeric ASIC1a/2b (Homo sapiens, UniProt P78348+Q16515).
T2 sequence (P78348 1-528): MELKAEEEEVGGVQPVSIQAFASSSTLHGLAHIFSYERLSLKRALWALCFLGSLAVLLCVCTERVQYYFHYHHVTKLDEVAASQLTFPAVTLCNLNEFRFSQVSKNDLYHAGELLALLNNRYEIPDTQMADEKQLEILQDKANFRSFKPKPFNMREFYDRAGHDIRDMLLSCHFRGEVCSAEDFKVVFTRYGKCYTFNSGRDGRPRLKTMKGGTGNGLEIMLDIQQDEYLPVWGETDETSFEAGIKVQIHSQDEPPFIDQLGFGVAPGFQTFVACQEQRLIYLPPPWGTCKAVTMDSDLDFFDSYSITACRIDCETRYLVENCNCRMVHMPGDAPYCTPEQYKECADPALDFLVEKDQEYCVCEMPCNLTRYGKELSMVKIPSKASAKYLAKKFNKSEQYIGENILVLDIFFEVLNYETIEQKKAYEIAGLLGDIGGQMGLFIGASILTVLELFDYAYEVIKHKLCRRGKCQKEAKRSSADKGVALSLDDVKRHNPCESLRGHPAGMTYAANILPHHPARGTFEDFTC
T2 sequence (Q16515 1-563 isoform Q16515-2): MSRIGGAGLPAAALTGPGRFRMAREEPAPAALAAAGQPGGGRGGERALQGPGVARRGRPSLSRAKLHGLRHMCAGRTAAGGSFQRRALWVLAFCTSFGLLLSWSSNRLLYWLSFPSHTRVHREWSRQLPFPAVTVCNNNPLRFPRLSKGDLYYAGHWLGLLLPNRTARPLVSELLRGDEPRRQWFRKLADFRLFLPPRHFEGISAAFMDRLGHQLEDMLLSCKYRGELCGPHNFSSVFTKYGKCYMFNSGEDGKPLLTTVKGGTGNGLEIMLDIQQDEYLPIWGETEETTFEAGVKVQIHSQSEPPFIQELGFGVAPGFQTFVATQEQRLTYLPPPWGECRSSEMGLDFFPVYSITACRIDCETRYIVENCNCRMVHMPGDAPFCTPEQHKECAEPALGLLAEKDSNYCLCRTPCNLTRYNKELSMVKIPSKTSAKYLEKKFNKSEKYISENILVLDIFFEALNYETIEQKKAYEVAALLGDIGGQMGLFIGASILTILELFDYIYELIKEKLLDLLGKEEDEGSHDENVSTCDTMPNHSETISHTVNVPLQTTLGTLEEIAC
Conditions: cited from earlier work.

The next series deals with T3, homomeric ASIC1a (Homo sapiens, UniProt P78348).
T3 sequence (P78348 1-528): T2 sequence (P78348 1-528)
Conditions: cited from earlier work.

The conditions of series [6]: mice; i.t., i.c.v., intraplantar or intravenous; cited from earlier work.
Series [7] concerns ASICs. Conditions: Rat DRG neurons, in vitro; cited from earlier work.

Entries after “also recorded” stand apart in the source; their conditions may differ.

Consider `NC(N)=NC(=O)c1nc(Cl)c(N)nc1N` [Amiloride, 3,5-diamino-6-chloro-N-(diaminomethylidene)pyrazine-2-carboxamide], for which the half-inhibitory concentration (IC50) in the series on ASICs [1] was 10 to 100 µM. Also, the “body weight change compared to Day 14, vs DMSO” value in series [2] is on record as “significant reductions in body weight; also recorded: clear reduction in weight”. In addition, the “reduction in body fat percentage vs DMSO” value in [3] is recorded as “significantly more reduction”. The “reduction in body fluid percentage vs DMSO” value in [3] is on record as “not significantly different; also recorded: no significant difference”. In addition, the short-term food intake result is recorded as “suppressed short-term food intake” in the series on DEG/ENaC ion channels (intraperitoneal, 1, 10 or 100 μmole/kg, male C57BL6 mice) and “suppressed short-term food intake” in the series with DEG/ENaC ion channels (oral gavage, 1, 10 or 100 μmole/kg, female C57BL6 mice).

On to `N=C(N)c1ccc(-c2cc3ccc(C(=N)N)cc3[nH]2)cc1` [DAPI, 4′,6-diamidino-2-phenylindole], for which the ASICs blockage activity entry in the series with ASICs [4] was “potent ASICs blockage activity”. Consider `CC(C)C1c2cc(C#Cc3ccc4cc(C(=N)N)ccc4c3)ccc2CCN1C` (stereo not drawn) [10b], for which, in the series on ASIC, the “potency relative to A-317567” value is given as “about 3 fold”.

Regarding `CC(C)C1c2cc(/C=C/c3ccc4cc(C(=N)N)ccc4c3)ccc2CCN1C` (stereo not drawn) [10a], the “potency relative to A-317567” value in the series with ASIC is given as “about 3 fold”.

With `N=C(NC(=O)c1nc(Cl)c(N)nc1N)NC1CCN(C(=O)c2ccc(C(=O)N3CCC(NC(=N)NC(=O)c4nc(Cl)c(N)nc4N)CC3)cc2)CC1` [NVP-QBE170], the “blockage of ENaC” value at ENaC was “potent and selective blockage of ENaC”. For the same compound, the “safety window over existing ENaC blockers, in terms of hyperkalaemia” value in series [5] is “significantly enhanced safety window”. Regarding PcTx1, the “inhibition of heteromeric ASIC1a/2b” value at heteromeric ASIC1a/2b is on record as “nanomolar potency”. Further, on homomeric ASIC1a, the “inhibition of homomeric ASIC1a” value is given as “nanomolar potency”. In addition, the “excitotoxicity, spasms, convulsions, motor paralysis, ataxia upon in vivo injections” value in series [6] is recorded as “never produce excitotoxicity, spasms, convulsions, motor paralysis, nor ataxia”. On to `N=C(N)c1ccc(OCCCCCOc2ccc(C(=N)N)cc2)cc1` [pentamidine], for which the ASICs blockage activity result in the series on ASICs [4] was “potent ASICs blockage activity”. Turning to `N=C(N)c1ccc(/N=N/Nc2ccc(C(=N)N)cc2)cc1` [diminazene], the ASICs blockage activity result with ASICs [4] is “potent ASICs blockage activity”.

Turning to APETx2, the “excitotoxicity, spasms, convulsions, motor paralysis, ataxia upon in vivo injections” value in [6] is on record as “never produce excitotoxicity, spasms, convulsions, motor paralysis, nor ataxia”.

In the case of `CC(C)C1c2cc(C3CC3c3ccc4cc(C(=N)N)ccc4c3)ccc2CCN1C` (stereo not drawn) [A-317567], the “potency relative to Amiloride on ASICs currents” value in the series with ASICs [7] was 1.8-15 fold.

For orientation: IC50 means the concentration at which inhibition is half-maximal.
